Laboratory results published in patent publication US20030013099A1, “Genes regulated by DNA methylation in colon tumors” (priority 2001, published 2003).

Assays:
[1] = system: HT-29 cells; conditions: cultured HT-29 cells, microarray experiments and other methods; cited from earlier work
[2] = system: HT29 cells; assay: microarray differential expression, HT29 cells treated with 500 nM Aza; assay type: cell-based, human; conditions: vs untreated, log base 2, negative = upregulation
Protocol: HT29 cells were derived from a Grade II adenocarcinoma of the colon obtained from a person. HCT116 cells are a subpopulation of malignant cells isolated from a primary cell culture of a single human colonic carcinoma (Brattain et al. (1981) Cancer Res 41:1751-6). HMEC cells are a primary human epithelial cell line derived from the breast tissue of a normal donor. HT29 and HCT116 colorectal carcinoma cells (American Type Culture Collection, Manassas Va.) were cultured in McCoy's medium supplemented with 10% fetal bovine serum (Invitrogen) at 37° C. and 5% CO2. Treated cells were exposed to 500 nM 5-aza-2-deoxycytidine (Aza; Sigma-Aldrich) 24 hours after passage in complete culture medium. Control cultures were treated in parallel with phosphate buffered saline vehicle. After twenty-four hours, culture medium was replaced with drug-free medium. Control and Aza-treated cells were subcultured at equal densities at 1 and 5 days after the initial treatment, and proliferation was measured at the subsequent time point using a Coulter counter (Beckman Coulter, Fullerton Calif.). Cells were harvested 5 days after the initial treatment.
Cells were harvested and lysed in 1 ml of TRIZOL reagent (5×10^6 cells/ml; Invitrogen). The lysates were vortexed thoroughly and incubated at room temperature for 2-3 minutes and extracted with 0.5 ml chloroform. The extract was mixed, incubated at room temperature for 5 minutes, and centrifuged at 16,000× g for 15 minutes at 4° C. The aqueous layer was collected, and an equal volume of isopropanol was added. Samples were mixed, incubated at room temperature for 10 minutes, and centrifuged at 16,000× g for 20 minutes at 4° C. The supernatant was removed, and the RNA pellet was washed with 1 ml of 70% ethanol, centrifuged at 16,000× g at 4° C., and resuspended in RNAse-free water. The concentration of the RNA was determined by measuring the optical density at 260 nm.
Poly(A) RNA was prepared using an OLIGOTEX mRNA kit (Qiagen) with the following modifications: OLIGOTEX beads were washed in tubes instead of on spin columns, resuspended in elution buffer, and then loaded onto spin columns to recover mRNA. To obtain maximum yield, the mRNA was eluted twice.
Each poly(A) RNA sample was reverse transcribed using MMLV reverse-transcriptase, 0.05 pg/μl oligo-d(T) primer (21mer), 1× first strand buffer, 0.03 units/ul RNAse inhibitor, 500 uM dAT?, 500 uM dGTP, 500 uM dTTP, 40 uM dCTP, and 40 uM either dCTP-Cy3 or dCTP-Cy5 (APB). The reverse transcription reaction was performed in a […] volume containing 200 ng poly(A) RNA using the GEMBRIGHT kit (Incyte Genomics). Specific control poly(A) RNAs (YCFRO6, YCFR45, YCFR67, YCFR85, YCFR43, YCFR22, YCFR23, YCFR25, YCFR44, YCFR26) were synthesized by in vitro transcription from non-coding yeast genomic DNA (W. Lei, unpublished). As quantitative controls, control mRNAs (YCFRO6, YCFR45, YCFR67, and YCFR85) at 0.002 ng, 0.02 ng, 0.2 ng, and 2 ng were diluted into reverse transcription reaction at ratios of 1:100,000, 1:10,000, 1:1000, 1:100 (w/w) to sample mRNA, respectively. To sample differential expression patterns, control mRNAs (YCFR43, YCFR22, YCFR23, YCFR25, YCFR44, YCFR26) were diluted into reverse transcription reaction at ratios of 1:3, 3:1, 1:10, 10:1, 1:25, 25:1 (w/w) to sample mRNA. Reactions were incubated at 37° C. for 2 hours, treated with […] of 0.5M sodium hydroxide, and incubated for 20 minutes at 85° C. to the stop the reaction and degrade the RNA.
cDNAs were purified using two successive CHROMA SPIN 30 gel filtration spin columns (Clontech). Cy3- and Cy5-labeled reaction samples were combined as described below and ethanol precipitated using […] of 100% ethanol. The cDNAs were then dried to completion using a SpeedVAC system (Savant Instruments, Holbrook N.Y.) and resuspended in 14 μl 5× SSC, 0.2% SDS. […]

## Nc1ncn([C@H]2C[C@H](O)[C@@H](CO)O2)c(=O)n1 [Aza, 5-aza-2-deoxycytidine]
[1]
  expression of genes related to interferon (IFN) signaling: leads to specific expression of several genes related to interferon (IFN) signaling
[2]; SEQ ID NO:1 hypothetical protein
  differential expression, Clone ID 2416222, HT29 t/ Aza (5d): −1.74
[2]; SEQ ID NO:2 Incyte Unique
  differential expression, Clone ID 4103545, HT29 t/ Aza (5d): −1.89
[2]; SEQ ID NO:3 interferon-inducible protein
  differential expression, Clone ID 322569, HT29 t/ Aza (5d): −4.17
[2]; SEQ ID NO:5 chromosome 6p21.3, HLA Class I region
  differential expression, Clone ID 5322134, HT29 t/ Aza (5d): −2.12
[2]; SEQ ID NO:6 unnamed protein product
  differential expression, Clone ID 1698458, HT29 t/ Aza (5d): −1.79
[2]; SEQ ID NO:7 KIAA1046 protein
  differential expression, Clone ID 1871523, HT29 t/ Aza (5d): −1.07
[2]; SEQ ID NO:8 putative tumor antigen
  differential expression, Clone ID 6024084, HT29 t/ Aza (5d): −2.79
[2]; SEQ ID NO:9 Incyte Unique
  differential expression, Clone ID 3810006, HT29 t/ Aza (5d): −0.92
[2]; SEQ ID NO:10 Incyte Unique
  differential expression, Clone ID 4508879, HT29 t/ Aza (5d): −0.85
[2]; SEQ ID NO:11 U 6 RNA
  differential expression, Clone ID 4225379, HT29 t/ Aza (5d): −0.85
[2]; SEQ ID NO:12 cDNA clone ZD16H10
  differential expression, Clone ID 3463713, HT29 t/ Aza (5d): −1.87
[2]; SEQ ID NO:13, 14 T-cell receptor gamma
  differential expression, Clone ID 2998017, HT29 t/ Aza (5d): −1.14
[2]; SEQ ID NO:15 pTR5 repetitive sequence
  differential expression, Clone ID 4318273, HT29 t/ Aza (5d): −1.58
[2]; SEQ ID NO:16 Hep27 protein
  differential expression, Clone ID 1649414, HT29 t/ Aza (5d): −1.20
[2]; SEQ ID NO:18 cDNA FLJ20222
  differential expression, Clone ID 1684742, HT29 t/ Aza (5d): −0.85
[2]; SEQ ID NO:19 KIAA0412
  differential expression, Clone ID 2825816, HT29 t/ Aza (5d): −1.84
[2]; SEQ ID NO:21 Incyte Unique
  differential expression, Clone ID 2440943, HT29 t/ Aza (5d): −1.07
[2]; SEQ ID NO:22 PDGF-B
  differential expression, Clone ID 1294339, HT29 t/ Aza (5d): −0.93
[2]; SEQ ID NO:23 cDNA FLJ10570
  differential expression, Clone ID 5104741, HT29 t/ Aza (5d): −0.93
[2]; SEQ ID NO:24 pTR7 repetitive sequence
  differential expression, Clone ID 1855389, HT29 t/ Aza (5d): −2.09
[2]; SEQ ID NO:25 chromosome 21 segment HS21C049
  differential expression, Clone ID 5207613, HT29 t/ Aza (5d): −2.10
[2]; SEQ ID NO:26 hypothetical protein
  differential expression, Clone ID 3207902, HT29 t/ Aza (5d): −1.29
[2]; SEQ ID NO:27 ZNFpT17
  differential expression, Clone ID 4999769, HT29 t/ Aza (5d): −1.26
[2]; SEQ ID NO:28 transketolase
  differential expression, Clone ID 408886, HT29 t/ Aza (5d): −1.31
[2]; SEQ ID NO:30 GAGE-8
  differential expression, Clone ID 4764233, HT29 t/ Aza (5d): −2.00
[2]; SEQ ID NO:31 GAGE-7B
  differential expression, Clone ID 2511379, HT29 t/ Aza (5d): −1.98
[2]; SEQ ID NO:33 cDNA clone YU62C03
  differential expression, Clone ID 2471817, HT29 t/ Aza (5d): −1.20
[2]; SEQ ID NO:34 MAGE-11 antigen
  differential expression, Clone ID 3333736, HT29 t/ Aza (5d): −1.38
[2]; SEQ ID NO:35 GAGE-8
  differential expression, Clone ID 1304365, HT29 t/ Aza (5d): −2.48
[2]; SEQ ID NO:37, 38 MAGE-4b antigen
  differential expression, Clone ID 2657056, HT29 t/ Aza (5d): −1.93
[2]; SEQ ID NO:39 MAGE-9 antigen
  differential expression, Clone ID 2507719, HT29 t/ Aza (5d): −2.32
[2]; SEQ ID NO:41 MAGE-1
  differential expression, Clone ID 4688, HT29 t/ Aza (5d): −2.03
[2]; SEQ ID NO:42 HM74
  differential expression, Clone ID 2068708, HT29 t/ Aza (5d): −1.17
[2]; SEQ ID NO:43 1-8D
  differential expression, Clone ID 23770, HT29 t/ Aza (5d): −2.99
[2]; SEQ ID NO:45 Incyte Unique
  differential expression, Clone ID 1616783, HT29 t/ Aza (5d): −0.84
[2]; SEQ ID NO:46 cDNA FLJ20120
  differential expression, Clone ID 820942, HT29 t/ Aza (5d): −0.58
[2]; SEQ ID NO:47 Incyte Unique
  differential expression, Clone ID 891322, HT29 t/ Aza (5d): 0.00
[2]; SEQ ID NO:48 U5 A RNA
  differential expression, Clone ID 2755836, HT29 t/ Aza (5d): −0.68
[2]; SEQ ID NO:49 phospholipid scramblase 1
  differential expression, Clone ID 1227521, HT29 t/ Aza (5d): −2.10
[2]; SEQ ID NO:50 retinoid inducible gene 1
  differential expression, Clone ID 2200842, HT29 t/ Aza (5d): −1.74
[2]; SEQ ID NO:51 interferon induced
  differential expression, Clone ID 2238363, HT29 t/ Aza (5d): −1.85
[2]; SEQ ID NO:53 TRAIL
  differential expression, Clone ID 1495382, HT29 t/ Aza (5d): −1.07
[2]; SEQ ID NO:55 rhoB
  differential expression, Clone ID 1998269, HT29 t/ Aza (5d): −0.92
[2]; SEQ ID NO:56 hepatitis C-associated microtubular aggregate
  differential expression, Clone ID 1919287, HT29 t/ Aza (5d): −3.12
[2]; SEQ ID NO:57 HE4 protein
  differential expression, Clone ID 2637446, HT29 t/ Aza (5d): −1.07
[2]; SEQ ID NO:58 Similar to keratin 7
  differential expression, Clone ID 1962141, HT29 t/ Aza (5d): −0.43
[2]; SEQ ID NO:60 Incyte Unique
  differential expression, Clone ID 4933404, HT29 t/ Aza (5d): −0.32
[2]; SEQ ID NO:61 Keratin 8
  differential expression, Clone ID 2150288, HT29 t/ Aza (5d): −0.07
  differential expression, Clone ID 2697455, HT29 t/ Aza (5d): −0.32
